Data reported in patent US10206394B2, “Herbicidal compounds” (Syngenta Participations AG, priority 2014, dated 2019).
Like-named read-outs stand apart in the source and are kept apart here.

How the values were obtained:
Assay in all cases: Glasshouse assay for herbicidal activity (pre- and post-emergence), percentage phytotoxicity
Assay type in all cases: in vivo
[1] = test system: Alopecurus myosuroides (ALOMY); details: Alopecurus myosuroides, 250 g/ha, visual assessment (100%=total damage, 0%=no damage)
How it was run: (§1)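 Herbicide was applied to potted plants sown in standard soil, one day after sowing for PRE and after about 12 days for POST. Visual percentage damage ratings followed at 15 DAA (POST) and 20 DAA (PRE).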

Avena fatua (AVEFA) = details: Avena fatua, 250 g/ha, visual assessment (100%=total damage, 0%=no damage)
How it was run: as §1

[2] = test system: Echinochloa crus-galli (ECHCG); details: Echinochloa crus-galli, 250 g/ha, visual assessment (100%=total damage, 0%=no damage)
How it was run: as §1

Lolium perenne (LOLPE) = details: Lolium perenne, 250 g/ha, visual assessment (100%=total damage, 0%=no damage)
How it was run: as §1

[3] = post-emergence, 360 h, post-emergence, 15 DAA, read-out: Post-emergence herbicidal activity (percentage phytotoxicity) ALOMY POST
[4] = pre-emergence, 480 h, pre-emergence, 20 DAA, read-out: Pre-emergence herbicidal activity (percentage phytotoxicity) ALOMY PRE
[5] = post-emergence, 360 h, post-emergence, 15 DAA, read-out: Post-emergence herbicidal activity (percentage phytotoxicity) AVEFA POST
[6] = pre-emergence, 480 h, pre-emergence, 20 DAA, read-out: Pre-emergence herbicidal activity (percentage phytotoxicity) AVEFA PRE
[7] = post-emergence, 360 h, post-emergence, 15 DAA, read-out: Post-emergence herbicidal activity (percentage phytotoxicity) ECHCG POST
[8] = pre-emergence, 480 h, pre-emergence, 20 DAA, read-out: Pre-emergence herbicidal activity (percentage phytotoxicity) ECHCG PRE
[9] = post-emergence, 360 h, post-emergence, 15 DAA, read-out: Post-emergence herbicidal activity (percentage phytotoxicity) LOLPE POST
[10] = pre-emergence, 480 h, pre-emergence, 20 DAA, read-out: Pre-emergence herbicidal activity (percentage phytotoxicity) LOLPE PRE

## C=CCNC(=O)CC1CC(=O)C(c2c(C)cc(-c3ncc(Cl)cc3F)cc2C)C1=O (centres unmarked) [Compound B116]
[1]; [3]
  pest or weed control at 250 g/ha: 100%
[1]; [4]
  pest or weed control at 250 g/ha: 100%
Avena fatua (AVEFA); [5]
  pest or weed control at 250 g/ha: 100%
Avena fatua (AVEFA); [6]
  pest or weed control at 250 g/ha: 90%
[2]; [7]
  pest or weed control at 250 g/ha: 100%
[2]; [8]
  pest or weed control at 250 g/ha: 100%
Lolium perenne (LOLPE); [9]
  pest or weed control at 250 g/ha: 100%
Lolium perenne (LOLPE); [10]
  pest or weed control at 250 g/ha: 100%

## C=CCNC(=O)CC1CC(=O)C(c2c(C)cc(Br)cc2C)C1=O (centres unmarked) [Compound B117]
[1]; [3]
  pest or weed control at 250 g/ha: 80%
[1]; [4]
  pest or weed control at 250 g/ha: 70%
Avena fatua (AVEFA); [5]
  pest or weed control at 250 g/ha: 70%
Avena fatua (AVEFA); [6]
  pest or weed control at 250 g/ha: 20%
[2]; [7]
  pest or weed control at 250 g/ha: 70%
[2]; [8]
  pest or weed control at 250 g/ha: 70%
Lolium perenne (LOLPE); [9]
  pest or weed control at 250 g/ha: 70%
Lolium perenne (LOLPE); [10]
  pest or weed control at 250 g/ha: 70%

## Cc1cc(-c2ncc(Cl)cc2F)cc(C)c1C1C(=O)CC(CC(=O)NC(C)C)C1=O (centres unmarked) [Compound B118]
[1]; [3]
  pest or weed control at 250 g/ha: 100%
[1]; [4]
  pest or weed control at 250 g/ha: 100%
Avena fatua (AVEFA); [5]
  pest or weed control at 250 g/ha: 100%
Avena fatua (AVEFA); [6]
  pest or weed control at 250 g/ha: 90%
[2]; [7]
  pest or weed control at 250 g/ha: 100%
[2]; [8]
  pest or weed control at 250 g/ha: 100%
Lolium perenne (LOLPE); [9]
  pest or weed control at 250 g/ha: 100%
Lolium perenne (LOLPE); [10]
  pest or weed control at 250 g/ha: 100%

## CCC(C)NC(=O)CC1CC(=O)C(c2c(C)cc(-c3ncc(Cl)cc3F)cc2C)C1=O (centres unmarked) [Compound B119]
[1]; [3]
  pest or weed control at 250 g/ha: 100%
[1]; [4]
  pest or weed control at 250 g/ha: 100%
Avena fatua (AVEFA); [5]
  pest or weed control at 250 g/ha: 100%
Avena fatua (AVEFA); [6]
  pest or weed control at 250 g/ha: 90%
[2]; [7]
  pest or weed control at 250 g/ha: 100%
[2]; [8]
  pest or weed control at 250 g/ha: 100%
Lolium perenne (LOLPE); [9]
  pest or weed control at 250 g/ha: 100%
Lolium perenne (LOLPE); [10]
  pest or weed control at 250 g/ha: 100%

## CCC(C)NC(=O)CC1CC(=O)C(c2c(C)cc(Br)cc2C)C1=O (centres unmarked) [Compound B120]
[1]; [3]
  pest or weed control at 250 g/ha: 80%
[1]; [4]
  pest or weed control at 250 g/ha: 80%
Avena fatua (AVEFA); [5]
  pest or weed control at 250 g/ha: 90%
Avena fatua (AVEFA); [6]
  pest or weed control at 250 g/ha: 70%
[2]; [7]
  pest or weed control at 250 g/ha: 80%
[2]; [8]
  pest or weed control at 250 g/ha: 80%
Lolium perenne (LOLPE); [9]
  pest or weed control at 250 g/ha: 90%
Lolium perenne (LOLPE); [10]
  pest or weed control at 250 g/ha: 90%

## COCC(C)NC(=O)CC1CC(=O)C(c2c(C)cc(-c3ncc(Cl)cc3F)cc2C)C1=O (centres unmarked) [Compound B121]
[1]; [3]
  pest or weed control at 250 g/ha: 100%
[1]; [4]
  pest or weed control at 250 g/ha: 100%
Avena fatua (AVEFA); [5]
  pest or weed control at 250 g/ha: 100%
Avena fatua (AVEFA); [6]
  pest or weed control at 250 g/ha: 90%
[2]; [7]
  pest or weed control at 250 g/ha: 100%
[2]; [8]
  pest or weed control at 250 g/ha: 100%
Lolium perenne (LOLPE); [9]
  pest or weed control at 250 g/ha: 100%
Lolium perenne (LOLPE); [10]
  pest or weed control at 250 g/ha: 100%

## Cc1cc(Br)cc(C)c1C1C(=O)CC(CC(=O)NCC2CC2)C1=O (centres unmarked) [Compound B122]
[1]; [3]
  pest or weed control at 250 g/ha: 100%
[1]; [4]
  pest or weed control at 250 g/ha: 80%
Avena fatua (AVEFA); [5]
  pest or weed control at 250 g/ha: 100%
Avena fatua (AVEFA); [6]
  pest or weed control at 250 g/ha: 80%
[2]; [7]
  pest or weed control at 250 g/ha: 100%
[2]; [8]
  pest or weed control at 250 g/ha: 70%
Lolium perenne (LOLPE); [9]
  pest or weed control at 250 g/ha: 100%
Lolium perenne (LOLPE); [10]
  pest or weed control at 250 g/ha: 90%

## Cc1cc(-c2ncc(Cl)cc2F)cc(C)c1C1C(=O)CC(CC(=O)NCC2CC2)C1=O (centres unmarked) [Compound B123]
[1]; [3]
  pest or weed control at 250 g/ha: 100%
[1]; [4]
  pest or weed control at 250 g/ha: 100%
Avena fatua (AVEFA); [5]
  pest or weed control at 250 g/ha: 100%
Avena fatua (AVEFA); [6]
  pest or weed control at 250 g/ha: 90%
[2]; [7]
  pest or weed control at 250 g/ha: 100%
[2]; [8]
  pest or weed control at 250 g/ha: 100%
Lolium perenne (LOLPE); [9]
  pest or weed control at 250 g/ha: 100%
Lolium perenne (LOLPE); [10]
  pest or weed control at 250 g/ha: 100%

## Cc1cc(-c2ncc(Cl)cc2F)cc(C)c1C1C(=O)CC(CC(=O)NCC(C)C)C1=O (centres unmarked) [Compound B124]
[1]; [3]
  pest or weed control at 250 g/ha: 100%
[1]; [4]
  pest or weed control at 250 g/ha: 90%
Avena fatua (AVEFA); [5]
  pest or weed control at 250 g/ha: 100%
Avena fatua (AVEFA); [6]
  pest or weed control at 250 g/ha: 100%
[2]; [7]
  pest or weed control at 250 g/ha: 100%
[2]; [8]
  pest or weed control at 250 g/ha: 100%
Lolium perenne (LOLPE); [9]
  pest or weed control at 250 g/ha: 100%
Lolium perenne (LOLPE); [10]
  pest or weed control at 250 g/ha: 100%

## Cc1cc(-c2ncc(Cl)cc2F)cc(C)c1C1C(=O)CC(CC(=O)NC2CCCC2)C1=O (centres unmarked) [Compound B125]
[1]; [3]
  pest or weed control at 250 g/ha: 90%
[1]; [4]
  pest or weed control at 250 g/ha: 80%
Avena fatua (AVEFA); [5]
  pest or weed control at 250 g/ha: 100%
Avena fatua (AVEFA); [6]
  pest or weed control at 250 g/ha: 40%
[2]; [7]
  pest or weed control at 250 g/ha: 100%
[2]; [8]
  pest or weed control at 250 g/ha: 100%
Lolium perenne (LOLPE); [9]
  pest or weed control at 250 g/ha: 100%
Lolium perenne (LOLPE); [10]
  pest or weed control at 250 g/ha: 100%
